How the values were obtained:
[1] = test system: Pseudomonas aeruginosa ATCC 27853 biofilm; test: MBIC assay (biofilm inhibition, crystal violet); assay type: cell-based, P. aeruginosa; settings: 48 h incubation, absorbance 540 nm
Method: (§1) The exact weighed amount was noted and the volume of solvent to reach a 80 mM dilution calculated. Half of the volume was added first, by adding Tween 80. In a second step, the other half of the volume DMSO was added and the closed tube inverted 5-10 times and then vortexed very thoroughly for at least 30 seconds. If after this procedure unsolved material was still visible, the tube was placed in a shaker at 37° C. at 150 rpm for at least 30 minutes. […] For the MBEC assay (method 1.3) the solution needs to be diluted to a final concentration of 2 mM in 0.9% saline solution and then further diluted to 1 mM, 0.5 mM, 0.25 mM and 0.125 mM in saline. Those dilutions were added as treatment to the 96 well plates with the grown biofilm (see method 3).
(§2) Frozen aliquots of Staphylococcus epidermis ATCC 35984 and Pseudomonas aeruginosa ATCC 27853 were used to inoculate a tryptic soy agar (TSA) plate and were incubated overnight at 37° C. After incubation 3-5 well-isolated colonies with the same morphology were selected from the TSA plate and resuspended in 2 mL 0.9% saline solution with 3-6 glass beads and vortexed. The optical density of the bacterial suspension was measured at 600 nm (OD600) with a spectrophotometer (Evolution™ 201/220 UV-Visible Spectrophotometer, Thermo Fisher Scientific) and diluted to an OD600 of 0.2. The MBIC assay was performed in a 96-microtiter plate. 50 μL of TSB was added into columns 2-11, and 100 μL to column 12 for sterility control. 100 μL of the 8 mM test compound solution (method 1) was added to column 1. A two-fold dilution series of the solution in TSB was achieved by resuspending 50 μL of the 8 mM solution from column 1 in column 2. This step was repeated until column 10. The respective concentration of Tween 80 and DMSO in column 1 is at 2.5%, which is two-fold diluted throughout the plate. 50 μL of the bacterial suspension was added to column 1-11. The microtiter plates were sealed with adhesive polyethylene film for sealing microplates (Diversified Biotech) and incubated for 48 h at 37° C. After incubation the supernatant is carefully removed and the well with the biofilm washed for one time with 100 μL 0.9% saline solution. 100 μL 0.1 M HCl was added and incubated for 1 h at room temperature to fix the biofilm. After incubation the HCl was removed and 100 μL crystal violet (0.1% v/v in water) was added and incubated for 30 min at room temperature. The unbound crystal violet was removed and the wells washed one time with 100 μL demineralized water. 100 μL 30% acetic acid was added and incubated for 1 h at 37° C. and 150 rpm. The solution was resuspended and transferred to a flat-bottom 96-well plate and the absorbance measured at 540 nm with the spectrophotometer. This assay was repeated two times in two independent experiments.

[2] = test system: Staphylococcus epidermis ATCC 35984 biofilm; test: MBEC assay (biofilm eradication, CFU log reduction); assay type: cell-based, S. epidermidis; settings: 48 h grown biofilm, 20 h treatment, CFU log reduction vs untreated; for minimal effective concentration: read-out: S. epidermidis MBEC mM with log reduction ≥1
Method: as §1
(§3) Frozen aliquots of Staphylococcus epidermis ATCC 35984 and Pseudomonas aeruginosa ATCC 27853 were used to inoculate 20 mL of Tryptic Soy Broth (TSB) in a 100 mL Erlenmeyer flask at 37° C. and 150 rpm and incubated overnight (Infors). The OD600 of the overnight culture was measured with a spectrophotometer (Evolution™ 201/220 UV-Visible Spectrophotometer, Thermo Fisher Scientific) and diluted to an OD600 of 0.2, which resembles 10^8 CFU/mL. The cell suspension of OD600=0.2 was seeded into a U-bottom-shaped 96 well plates by pipetting 100 μL per well in column 1-11, column 12 was filled with 100 μL medium as sterility control. The 96 well plates were sealed with adhesive polyethylene film for sealing microplates and incubated for 48 h at 37° C. at static conditions. After the biofilm growth phase, 100 μL of treatment solutions (method 1) were added to the vials resulting in treatment concentrations of 1 mM, 0.5 mM, 0.25 mM and 0.125 mM and with the respective concentration of Tween 80 and DMSO each at 0.63%, 0.32%, 0.16% and 0.08%. The same concentration was applied to four different wells of the same bacterial strain, resulting in four replicates for each concentration and strain. The treatment was incubated for 20 h at 37° C. at static conditions. After the treatment the supernatant was carefully removed and the well with the biofilm washed carefully for one time with 200 μL 0.9% saline solution. 200 μL saline solution was added and the biofilm was resuspended thoroughly. When fully homogenized then 20 μL was used for the first dilution in 180 μL 0.9% saline solution, which was prepared in a second plate. This dilution was continued until dilution step 10E−5 and 100 μL of the 10E−4 and 10E−5 dilution plated on a TSA plate. The TSA plates were incubated at 37° C. for 24 h. The colonies on the plates were enumerated, the colony forming units per mL of the dispensed biofilm and averages thereof and the log reduction in comparison with the untreated sample from the same wells plate calculated. Reduction of colony forming units goes hand in hand with the thickness of the biofilm and thus with the number bacteria that are present in the biofilm. Therefore, a significant reduction of colony forming units in the biofilm was defined at the value of log reduction ≥1 or more. This assay was repeated two times in two independent experiments)

[3] = test system: Pseudomonas aeruginosa ATCC 27853 biofilm; test: as above; assay type: cell-based, P. aeruginosa; settings: 48 h grown biofilm, 20 h treatment, CFU log reduction vs untreated; for minimal effective concentration: Pseudomonas aeruginosa, ATCC27853, read-out: P. aeruginosa MBEC mM with log reduction ≥1
Method: as §1, §3

udder cleft wound = test: In vivo udder cleft dermatitis test: wound assessment after spray treatment; design: species or system cow; settings: for Conclusion (effect on udder cleft wound): over 60 days, all cows of the group
Method: An example of a biofilm-related disorder is Udder Cleft Dermatitis (UCD), which relates to a chronic wound. In this Example, di-alkyl thiosulfonates, dialkyl thiosulfinates and di-alkyl disulfides were tested for their effect on cows affected by UCD.
Experiments were performed to examine the effect of various sprays containing water (control), a test compound, or a reference compound (CTC spray, which contains chlorotetracycline hydrochloride, and was obtained from Dechra veterinary products).
0.35 mL of the spray was sprayed on an udder cleft wound per treatment. Treatments took place once a day at t=0, at t=3 days and t=6 days. In Table 6, the assessment qualifications that are used in Table 7, are explained.

[4] = test system: Staphylococcus epidermis ATCC 35984 biofilm; test: MBIC assay (biofilm inhibition, crystal violet); assay type: cell-based, S. epidermidis; settings: 48 h incubation, absorbance 540 nm
Method: as §1, §2

[5] = test system: Staphylococcus epidermis ATCC 35984; test: MIC assay (planktonic growth inhibition, OD600); assay type: cell-based, S. epidermidis; settings: 24 h at 37° C.; for IC50 / S. epidermidis MIC50: minimal concentration reducing final OD600 by 50%; for IC50: read-out: S. epidermidis MIC50; for IC90 / S. epidermidis MIC90: minimal concentration reducing final OD600 by 90%; for IC90: read-out: S. epidermidis MIC90
Method: as §1
(§4) Frozen aliquots of Staphylococcus epidermis ATCC 35984 and Pseudomonas aeruginosa ATCC 27853 were used to inoculate a tryptic soy agar (TSA) plate and incubated overnight at 37° C. After incubation 3-5 well-isolated colonies with the same morphology were selected from the TSA plate and resuspended in 2 mL 0.9% saline solution with 3-6 glass beads and vortexed. The optical density at 600 nm (OD600) of the bacterial suspension was measured with a spectrophotometer (Evolution™ 201/220 UV-Visible Spectrophotometer, Thermo Fisher Scientific) and diluted to an OD600 of 0.0008, which resembles 10^6 CFU/mL.
(§5) The MIC assay was performed in a flat-bottom 96-microtiter plate. 50 μL of MHB-II was added into columns 2-11, and 100 μL to column 12 for sterility control. 100 μL of the 8 mM test compound solution (method 1) was added to column 1. A two-fold dilution series of the solution in MHB-II was achieved by resuspending 50 μL of the 8 mM solution from column 1 to column 2. This step was repeated until column 10. The respective concentration of Tween 80 and DMSO in column 1 was 2.5%, which is two-fold diluted throughout the plate. 50 μL of the bacterial suspension was added to column 1-11. The microtiter plates were sealed with adhesive polyethylene film for sealing microplates (Diversified Biotech) and incubated for 24 h at 37° C. After incubation the OD was measured at 600 nm with the Varioskan (Thermo Fisher Scientific). […] This assay was repeated three times in three independent experiments.

[6] = test system: Pseudomonas aeruginosa ATCC 27853; test: MIC assay (planktonic growth inhibition, OD600); assay type: cell-based, P. aeruginosa; settings: 24 h at 37° C.; for IC50 / IC90: Pseudomonas aeruginosa, ATCC27853; for IC50 / P. aeruginosa MIC50: minimal concentration reducing final OD600 by 50%; for IC50: read-out: P. aeruginosa MIC50; for IC90 / P. aeruginosa MIC90: minimal concentration reducing final OD600 by 90%; for IC90: read-out: P. aeruginosa MIC90
Method: as §1, §4, §5

| SMILES | P. aeruginosa MBIC90 [1] [mM] | minimal effective concentration [2] [mM] | minimal effective concentration [3] [mM] | Conclusion (effect on udder cleft wound) (udder cleft wound) | S. epidermidis MBIC90 [4] [mM] | IC50 [5] [µM] | IC90 [5] [µM] | IC50 [6] [µM] | IC90 [6] [µM] | inflammation of the udder cleft wound after treatment (udder cleft wound; immediately after the treatment, later infection reduced and wound healed) | S. epidermidis MBEC mM with log reduction ≥1 [2] [mM] | P. aeruginosa MBEC mM with log reduction ≥1 [3] [mM] | S. epidermidis MIC50 [5] [µM] | S. epidermidis MIC90 [5] [µM] | P. aeruginosa MIC50 [6] [µM] | P. aeruginosa MIC90 [6] [µM] |
| --- | --- | --- | --- | --- | --- | --- | --- | --- | --- | --- | --- | --- | --- | --- | --- | --- |
| Cc1ccc(SSc2ccc(C)cc2)cc1 [Di-p-tolyl disulfide] | 4 | > 1 | > 1 | No effect | >4 | > 4000 | > 4000 | > 4000 | > 4000 |  |  |  |  |  |  |  |
| CCCSSCCC [Di-n-propyl disulfide] | >4 | > 4 | > 4 | Positive effect | 4 | > 4000 | > 4000 | > 4000 | > 4000 | fast inflammation reduction |  |  |  |  |  |  |
| [O-][S+](Cc1ccccc1)SCc1ccccc1 [D-benzyl thiosulfinate, Di-benzyl thiosulfinate] | >4 |  |  |  | 4 |  |  |  |  |  | 1 | 0.125 | 30 | 30 | 60 | 500 |
| Clc1ccc(SSc2ccc(Cl)cc2)cc1 [Bis (4-chlorophenyl) disulfide, Bis(4-chlorophenyl) disulfide] | >4 | > 1 | > 1 |  | >4 | 10 | 30 | 20 | 30 |  |  |  |  |  |  |  |
| [O-][S+](Sc1ccccc1)c1ccccc1 (centres unmarked) [Di-phenyl thiosulfinate] | >4 |  |  | No effect | >4 |  |  |  |  |  | 2 | 2 | 1000 | 1000 | 1000 | 1000 |
